Non-standard residues stand in square brackets, D forms with d. Residues, ends and D or L forms follow the SMILES beside them. ξ: configuration not given here. *: point of attachment. Malonyl(2,2-Me2,histaminyl) = CC(C)(C(=O)NCCc1cnc[nH]1)C(=O)*; Ala(1H-tetrazol-5-yl) = N[C@@H](Cc1nnn[nH]1)C(=O)O; αMeL = CC(C)C[C@](C)(N)C(=O)O; ξαMeD = CC(N)(CC(=O)O)C(=O)O; Nle = CCCC[C@H](N)C(=O)O; Aib = CC(C)(N)C(=O)O; Alloc = C=CCOC(=O)*
How the values were obtained:
mouse GLP2 receptor = target: T1, mouse GLP2 receptor (Mus musculus, UniProt Q5IXF8); assay: cAMP accumulation assay (HTRF), functional agonism of mouse GLP2 receptor in HEK cells; format: cell-based; conditions: HEK cells transiently transfected, 45 min 37° C.; for Emax: HEK293, read-out: Mouse GLP-2R agonist cAMP Emax; for EC50: read-out: Mouse GLP-2R agonist cAMP pEC50 (converted)
T1 construct: expressed in transfected cells; host or cells: HEK cells, transient transfection with GeneJuice
T1 sequence (Q5IXF8 1-512): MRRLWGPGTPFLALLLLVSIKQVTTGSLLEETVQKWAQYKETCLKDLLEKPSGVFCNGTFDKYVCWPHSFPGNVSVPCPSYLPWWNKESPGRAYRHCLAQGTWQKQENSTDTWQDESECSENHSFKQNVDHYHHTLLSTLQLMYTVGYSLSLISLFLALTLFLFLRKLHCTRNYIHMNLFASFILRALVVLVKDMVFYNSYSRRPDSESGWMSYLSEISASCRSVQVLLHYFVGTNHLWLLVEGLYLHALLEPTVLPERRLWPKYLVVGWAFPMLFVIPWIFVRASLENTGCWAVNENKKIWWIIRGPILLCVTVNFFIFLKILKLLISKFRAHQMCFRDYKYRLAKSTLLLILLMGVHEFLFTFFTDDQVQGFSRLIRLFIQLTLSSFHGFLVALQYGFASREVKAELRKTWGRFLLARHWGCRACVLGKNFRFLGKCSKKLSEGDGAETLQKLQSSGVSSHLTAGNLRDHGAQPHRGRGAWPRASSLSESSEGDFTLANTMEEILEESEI

mouse GLP1 receptor = target: T2, mouse GLP1 receptor (Mus musculus, UniProt O35659); assay: cAMP accumulation assay (HTRF), functional agonism of mouse GLP1 receptor in HEK cells; format: cell-based; conditions: HEK cells transiently transfected, 45 min 37° C.; for Emax: HEK293, read-out: Mouse GLP-1 R agonist cAMP Emax; for EC50: read-out: Mouse GLP-1 R agonist cAMP pEC50 (converted)
T2 construct: expressed in transfected cells; host or cells: HEK cells, transient transfection with GeneJuice
T2 sequence (O35659 22-463): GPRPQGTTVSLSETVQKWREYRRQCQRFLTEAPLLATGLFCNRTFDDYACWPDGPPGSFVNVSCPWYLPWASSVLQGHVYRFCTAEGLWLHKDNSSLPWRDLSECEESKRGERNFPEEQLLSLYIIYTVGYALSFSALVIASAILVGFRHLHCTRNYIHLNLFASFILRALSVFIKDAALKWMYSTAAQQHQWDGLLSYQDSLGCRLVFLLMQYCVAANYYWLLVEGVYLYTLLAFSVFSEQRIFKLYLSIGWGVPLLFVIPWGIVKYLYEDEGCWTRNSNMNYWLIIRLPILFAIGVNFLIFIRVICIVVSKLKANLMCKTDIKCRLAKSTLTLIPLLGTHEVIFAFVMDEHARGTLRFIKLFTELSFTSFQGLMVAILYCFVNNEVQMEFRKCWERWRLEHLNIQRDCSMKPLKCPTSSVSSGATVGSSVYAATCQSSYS

human GLP2 receptor = target: T3, human GLP2 receptor (Homo sapiens, UniProt O95838); assay: cAMP accumulation assay (HTRF), functional agonism of human GLP2 receptor in HEK cells; conditions: for Emax: HEK293, read-out: Human GLP-2R agonist cAMP Emax;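 for all read-outs here: HEK cells transduced via BacMam to express human GLP2 receptor, agonist-stimulated cAMP measured by HTRF after 45 min at 37 °C in HBSS with 0.5 mM IBMX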
T3 sequence (O95838 1-553): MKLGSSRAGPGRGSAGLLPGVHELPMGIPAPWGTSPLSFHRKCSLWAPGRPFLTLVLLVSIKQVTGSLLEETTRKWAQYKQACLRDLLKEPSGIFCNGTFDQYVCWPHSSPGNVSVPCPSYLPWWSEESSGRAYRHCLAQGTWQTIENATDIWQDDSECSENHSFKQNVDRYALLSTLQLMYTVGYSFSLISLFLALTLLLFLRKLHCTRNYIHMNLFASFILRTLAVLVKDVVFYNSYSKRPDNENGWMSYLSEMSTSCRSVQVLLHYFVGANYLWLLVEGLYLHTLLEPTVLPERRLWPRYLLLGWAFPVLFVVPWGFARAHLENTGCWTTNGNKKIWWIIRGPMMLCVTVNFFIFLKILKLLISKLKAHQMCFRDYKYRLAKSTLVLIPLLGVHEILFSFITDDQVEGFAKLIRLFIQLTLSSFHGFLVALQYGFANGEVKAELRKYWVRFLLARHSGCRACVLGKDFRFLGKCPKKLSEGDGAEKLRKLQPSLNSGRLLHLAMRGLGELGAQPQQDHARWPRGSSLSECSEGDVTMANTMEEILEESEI
Procedure: (§1) The functional activity of the peptides were assessed using a HTRF cAMP assay. pEC50 values are quoted.
(§2) cAMP production upon agonist stimulation of human GLP2 or GLP1 receptor was assessed utilizing HiRange cAMP kit (Cisbio). In brief, HEK cells were infected with either human GLP2 or GLP1 receptor BacMam virus for 24 hours and frozen for later use in the assay. […] Cells were prepared in the assay buffer (HBSS (Lonza) supplemented with 0.5 mM IBMX (Tocris)). After 45 min incubation at 37° C., the reaction was stopped by addition of the HTRF detection reagents in the lysis buffer provided in the kit.

human GLP1 receptor = target: T4, human GLP1 receptor (Homo sapiens, UniProt P43220); assay: cAMP accumulation assay (HTRF), functional agonism of human GLP1 receptor in HEK cells; format: cell-based; conditions: HEK cells, human GLP1 receptor BacMam, 45 min 37° C.; for Emax: HEK293, read-out: Human GLP-1R agonist cAMP Emax; for EC50: read-out: Human GLP-1R agonist cAMP pEC50 (converted)
T4 construct: expressed in transfected cells; host or cells: HEK cells, BacMam virus transduction
T4 sequence (P43220 24-463): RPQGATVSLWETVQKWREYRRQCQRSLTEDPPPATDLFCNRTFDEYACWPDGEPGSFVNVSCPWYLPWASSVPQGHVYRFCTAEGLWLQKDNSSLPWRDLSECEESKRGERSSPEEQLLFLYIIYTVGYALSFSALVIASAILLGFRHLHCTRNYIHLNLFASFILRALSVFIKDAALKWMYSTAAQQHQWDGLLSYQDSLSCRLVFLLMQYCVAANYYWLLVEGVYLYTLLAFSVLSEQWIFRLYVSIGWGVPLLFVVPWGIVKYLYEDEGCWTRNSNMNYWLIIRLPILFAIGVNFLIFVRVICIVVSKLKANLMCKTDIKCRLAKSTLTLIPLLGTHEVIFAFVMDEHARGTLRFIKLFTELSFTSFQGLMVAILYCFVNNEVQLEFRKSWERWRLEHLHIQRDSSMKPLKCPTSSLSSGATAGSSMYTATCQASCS
Procedure: as §1, §2

Compound | Emax (mouse GLP2 receptor) [%] | EC50 (mouse GLP2 receptor) [nM] | Emax (mouse GLP1 receptor) [%] | EC50 (mouse GLP1 receptor) [nM] | EC50 (human GLP2 receptor) [nM] | Emax (human GLP2 receptor) [%] | Emax (human GLP1 receptor) [%] | EC50 (human GLP1 receptor) [nM]
CCCC[C@H](NC(=O)[C@H](CCC(=O)O)NC(=O)[C@H](CC(=O)O)NC(=O)[C@H](CO)NC(=O)[C@H](Cc1ccccc1)NC(=O)[C@H](CO)NC(=O)CNC(=O)[C@H](CC(=O)O)NC(=O)CNC(=O)[C@@H](N)Cc1cnc[nH]1)C(=O)N[C@H](Cc1ccccc1)C(=O)N[C@H](C(=O)N[C@H](C(=O)N[C@@H](CC(C)C)C(=O)N[C@@H](CC(=O)O)C(=O)N[C@@H](CC(C)C)C(=O)N[C@@H](CC(C)C)C(=O)N[C@@H](C)C(=O)N[C@@H](C)C(=O)N[C@@H](CCCNC(=N)N)C(=O)N[C@@H](CC(=O)O)C(=O)N[C@@H](Cc1ccccc1)C(=O)N[C@H](C(=O)N[C@@H](CC(N)=O)C(=O)N[C@@H](Cc1c[nH]c2ccccc12)C(=O)N[C@@H](CC(C)C)C(=O)N[C@H](C(=O)N[C@@H](CCC(N)=O)C(=O)N[C@H](C(=O)N[C@@H](CCCCN)C(=O)N[C@H](C(=O)N[C@H](C(=O)N[C@@H](CC(=O)O)C(N)=O)[C@@H](C)O)[C@@H](C)CC)[C@@H](C)O)[C@@H](C)CC)[C@@H](C)CC)[C@@H](C)CC)[C@@H](C)O [FE-203799, reference compound] (H-HGDGSFSDE[Nle][dF]TILDLLAARDFINWLIQTKITD-NH2) | 98.1 | 0.0316 | 53.4 | > 50.1 | 0.0158 | 101 | 61.4 | 158
C=CCOC(=O)NCCCC[C@H](NC(=O)[C@H](CC(C)C)NC(=O)[C@H](CC(=O)O)NC(=O)[C@H](CC(C)C)NC(=O)[C@@H](NC(=O)[C@@H](NC(=O)[C@@H](Cc1ccccc1)NC(=O)[C@H](CCCC)NC(=O)[C@H](CCC(=O)O)NC(=O)[C@H](CC(=O)O)NC(=O)[C@H](CO)NC(=O)[C@H](Cc1ccccc1)NC(=O)[C@H](CO)NC(=O)CNC(=O)[C@H](Cc1nn[nH]n1)NC(=O)C(C)(C)C(=O)NCCc1c[nH]cn1)[C@@H](C)O)[C@@H](C)CC)C(=O)N[C@@H](C)C(=O)N[C@@H](C)C(=O)N[C@@H](CCCCN)C(=O)N[C@@H](CC(=O)O)C(=O)N[C@@H](Cc1ccccc1)C(=O)N[C@H](C(=O)N[C@@H](CC(N)=O)C(=O)N[C@@H](Cc1c[nH]c2ccccc12)C(=O)N[C@@H](CC(C)C)C(=O)N[C@H](C(=O)N[C@@H](CCC(N)=O)C(=O)N[C@H](C(=O)N[C@@H](CCCCN)C(=O)N[C@H](C(=O)N[C@H](C(=O)NC(C)(CC(=O)O)C(N)=O)[C@@H](C)O)[C@@H](C)CC)[C@@H](C)O)[C@@H](C)CC)[C@@H](C)CC (stereo partly drawn) [Example 20] ({Malonyl(2,2-Me2,histaminyl)}-[Ala(1H-tetrazol-5-yl)]GSFSDE[Nle][dF]TILDLK(Alloc)AAKDFINWLIQTKIT[ξαMeD]-NH2; C-terminus assumed) | 100 |  | 92.2 |  |  | 103 | 94 | 

The remaining molecules from weak to strong by EC50 (human GLP2 receptor), led by results:

Emax (mouse GLP2 receptor) [%] | EC50 (mouse GLP2 receptor) [nM] | Emax (mouse GLP1 receptor) [%] | EC50 (mouse GLP1 receptor) [nM] | EC50 (human GLP2 receptor) [nM] | Emax (human GLP2 receptor) [%] | Emax (human GLP1 receptor) [%] | EC50 (human GLP1 receptor) [nM] | Compound
106 | 3.98 | 96.1 | 25.1 | 0.0316 | 101 | 94.7 | 7.94 | C=CCOC(=O)NCCCC[C@H](NC(=O)[C@H](CC(C)C)NC(=O)[C@H](CC(=O)O)NC(=O)[C@H](CC(C)C)NC(=O)[C@@H](NC(=O)[C@@H](NC(=O)[C@@H](Cc1ccccc1)NC(=O)[C@H](CCCC)NC(=O)[C@H](CCC(=O)O)NC(=O)[C@H](CC(=O)O)NC(=O)[C@H](CO)NC(=O)[C@H](Cc1ccccc1)NC(=O)[C@H](CO)NC(=O)CNC(=O)[C@H](Cc1nn[nH]n1)NC(=O)C(C)(C)C(=O)NCCc1c[nH]cn1)[C@@H](C)O)[C@@H](C)CC)C(=O)N[C@@H](C)C(=O)N[C@@H](C)C(=O)N[C@@H](CCCCN)C(=O)N[C@@H](CC(=O)O)C(=O)N[C@@H](Cc1ccccc1)C(=O)N[C@H](C(=O)N[C@@H](CC(N)=O)C(=O)N[C@@H](Cc1c[nH]c2ccccc12)C(=O)N[C@@H](CC(C)C)C(=O)N[C@H](C(=O)N[C@@H](CCC(N)=O)C(=O)N[C@H](C(=O)N[C@@H](CCCCN)C(=O)N[C@H](C(=O)N[C@H](C(=O)N[C@@H](Cc1ccccc1)C(N)=O)[C@@H](C)O)[C@@H](C)CC)[C@@H](C)O)[C@@H](C)CC)[C@@H](C)CC [Example 2] ({Malonyl(2,2-Me2,histaminyl)}-[Ala(1H-tetrazol-5-yl)]GSFSDE[Nle][dF]TILDLK(Alloc)AAKDFINWLIQTKITF-NH2)
101 | 3.98 | 92.3 | 3.16 | 0.00794 | 100 | 93.4 | 2.51 | C=CCOC(=O)NCCCC[C@H](NC(=O)[C@H](CC(C)C)NC(=O)[C@H](CC(=O)O)NC(=O)[C@H](CC(C)C)NC(=O)[C@@H](NC(=O)[C@@H](NC(=O)[C@@H](Cc1ccccc1)NC(=O)[C@H](CCCC)NC(=O)[C@H](CCC(=O)O)NC(=O)[C@H](CC(=O)O)NC(=O)[C@H](CO)NC(=O)[C@H](Cc1ccccc1)NC(=O)[C@H](CO)NC(=O)CNC(=O)[C@H](Cc1nn[nH]n1)NC(=O)C(C)(C)C(=O)NCCc1c[nH]cn1)[C@@H](C)O)[C@@H](C)CC)C(=O)N[C@@H](C)C(=O)N[C@@H](C)C(=O)N[C@@H](CCCCN)C(=O)N[C@@H](CC(=O)O)C(=O)N[C@@H](Cc1ccccc1)C(=O)N[C@H](C(=O)N[C@@H](CC(N)=O)C(=O)N[C@@H](Cc1c[nH]c2ccccc12)C(=O)N[C@@H](CC(C)C)C(=O)N[C@H](C(=O)N[C@@H](CCC(N)=O)C(=O)N[C@H](C(=O)N[C@@H](CCCCN)C(=O)N[C@@](C)(CC(C)C)C(=O)N[C@H](C(=O)N[C@@H](CC(=O)O)C(N)=O)[C@@H](C)O)[C@@H](C)O)[C@@H](C)CC)[C@@H](C)CC [Example 13] ({Malonyl(2,2-Me2,histaminyl)}-[Ala(1H-tetrazol-5-yl)]GSFSDE[Nle][dF]TILDLK(Alloc)AAKDFINWLIQTK[αMeL]TD-NH2)
100 | 0.794 | 94.9 | 0.631 | 0.00501 | 101 | 93.7 | 0.794 | C=CCOC(=O)NCCCC[C@H](NC(=O)[C@H](CC(C)C)NC(=O)[C@H](CC(=O)O)NC(=O)[C@H](CC(C)C)NC(=O)C(C)(C)NC(=O)[C@@H](NC(=O)[C@@H](Cc1ccccc1)NC(=O)[C@H](CCCC)NC(=O)[C@H](CCC(=O)O)NC(=O)[C@H](CC(=O)O)NC(=O)[C@H](CO)NC(=O)[C@H](Cc1ccccc1)NC(=O)[C@H](CO)NC(=O)CNC(=O)[C@H](Cc1nn[nH]n1)NC(=O)C(C)(C)C(=O)NCCc1c[nH]cn1)[C@@H](C)O)C(=O)N[C@@H](C)C(=O)N[C@@H](C)C(=O)N[C@@H](CCCCN)C(=O)N[C@@H](CC(=O)O)C(=O)N[C@@H](Cc1ccccc1)C(=O)N[C@H](C(=O)N[C@@H](CC(N)=O)C(=O)N[C@@H](Cc1c[nH]c2ccccc12)C(=O)N[C@@H](CC(C)C)C(=O)N[C@H](C(=O)N[C@@H](CCC(N)=O)C(=O)N[C@H](C(=O)N[C@@H](CCCCN)C(=O)N[C@H](C(=O)N[C@H](C(=O)N[C@@H](CC(=O)O)C(N)=O)[C@@H](C)O)[C@@H](C)CC)[C@@H](C)O)[C@@H](C)CC)[C@@H](C)CC [Example 17] ({Malonyl(2,2-Me2,histaminyl)}-[Ala(1H-tetrazol-5-yl)]GSFSDE[Nle][dF]T[Aib]LDLK(Alloc)AAKDFINWLIQTKITD-NH2)

From patent publication US20230295260A1, “GLP RECEPTOR AGONISTS” (HEPTARES THERAPEUTICS LIMITED, priority 2020, published 2023)
